From the CheMixHub ionic liquid set

Test: xn = mol fraction of the nth substance listed
Conditions: 101 kPa

CCCCCCCCCCCCCCCC[n+]1ccccc1.O=C([O-])c1ccccc1O + CC(C)C[C@H](N)C(=O)O + O
electrical conductivity [S/m]
Conditions | 293.15 K | 298.15 K | 303.15 K | 308.15 K | 313.15 K
x2 = 0.0009002, x1 = 3.6e-07 | 0.000905 | 0.00101 | 0.00113 | 0.00125 | 0.00138
x2 = 0.0009002, x1 = 7.2e-07 | 0.00104 | 0.00117 | 0.0013 | 0.00144 | 0.00159
x2 = 0.0009002, x1 = 9.1e-07 | 0.00119 | 0.00133 | 0.00148 | 0.00164 | 0.00181
x2 = 0.0009002, x1 = 1.27e-06 | 0.00132 | 0.00148 | 0.00165 | 0.00183 | 0.00201
x2 = 0.0009002, x1 = 1.63e-06 | 0.00147 | 0.00166 | 0.00184 | 0.00204 | 0.00225
x2 = 0.0009002, x1 = 1.99e-06 | 0.00163 | 0.00185 | 0.00207 | 0.00229 | 0.00253
x2 = 0.0009002, x1 = 2.54e-06 | 0.00179 | 0.00203 | 0.00229 | 0.00255 | 0.00282
x2 = 0.0009002, x1 = 2.9e-06 | – | – | – | 0.00275 | 0.00309
x2 = 0.0009002, x1 = 3.08e-06 | 0.00192 | 0.00218 | 0.00246 | – | –
x2 = 0.0009002, x1 = 3.44e-06 | 0.00203 | 0.00231 | 0.00263 | 0.00297 | 0.00331
x2 = 0.0009002, x1 = 3.81e-06 | – | 0.00243 | 0.00276 | 0.00311 | 0.00348
x2 = 0.0009002, x1 = 3.99e-06 | 0.00214 | – | – | – | –
x2 = 0.0009002, x1 = 4.35e-06 | 0.00224 | 0.00256 | 0.00289 | 0.00327 | 0.00366
x2 = 0.0009002, x1 = 4.71e-06 | 0.00235 | 0.00268 | 0.00303 | 0.00342 | 0.00383
x2 = 0.0009002, x1 = 5.07e-06 | – | – | 0.00316 | 0.00356 | 0.00399
x2 = 0.0009002, x1 = 5.26e-06 | 0.00246 | 0.0028 | – | – | –
x2 = 0.0009002, x1 = 5.62e-06 | 0.00255 | 0.0029 | 0.00328 | 0.00369 | 0.00415
x2 = 0.0009002, x1 = 5.98e-06 | 0.00266 | 0.00302 | 0.00341 | 0.00383 | 0.0043
x2 = 0.001799, x1 = 3.6e-07 | 0.00153 | 0.00172 | 0.00192 | 0.00213 | 0.00235
x2 = 0.001799, x1 = 5.5e-07 | 0.00167 | 0.00187 | 0.00208 | 0.00231 | 0.00256
x2 = 0.001799, x1 = 9.1e-07 | 0.00179 | 0.00201 | 0.00224 | 0.00249 | 0.00275
x2 = 0.001799, x1 = 1.09e-06 | 0.00192 | 0.00216 | 0.00241 | 0.00268 | 0.00296
x2 = 0.001799, x1 = 1.46e-06 | 0.00204 | 0.00229 | 0.00256 | 0.00283 | 0.00313
x2 = 0.001799, x1 = 1.64e-06 | 0.00212 | 0.00239 | 0.00267 | 0.00297 | 0.00329
x2 = 0.001799, x1 = 1.82e-06 | 0.00221 | 0.00248 | 0.00278 | 0.00309 | 0.00341
x2 = 0.001799, x1 = 2e-06 | 0.00227 | 0.00257 | 0.00288 | 0.00321 | 0.00356
x2 = 0.001799, x1 = 2.19e-06 | 0.00235 | – | 0.003 | 0.00334 | 0.0037
x2 = 0.001799, x1 = 2.37e-06 | – | – | – | – | 0.00384
x2 = 0.001799, x1 = 2.55e-06 | 0.00242 | 0.00275 | – | 0.00345 | –
x2 = 0.001799, x1 = 2.73e-06 | 0.00249 | 0.00284 | 0.00322 | 0.00361 | 0.00402
x2 = 0.001799, x1 = 3.1e-06 | 0.00256 | 0.00291 | 0.0033 | 0.0037 | 0.00413
x2 = 0.001799, x1 = 3.28e-06 | 0.00262 | 0.00298 | 0.00338 | 0.00379 | 0.00423
x2 = 0.001799, x1 = 3.46e-06 | – | – | – | – | 0.00434
x2 = 0.001799, x1 = 3.64e-06 | 0.00269 | 0.00306 | 0.00347 | 0.00389 | –
x2 = 0.001799, x1 = 3.83e-06 | 0.00275 | 0.00312 | 0.00354 | 0.00397 | 0.00443
